Assay results taken from patent US7115609B2, “Alanyl-piperidine heterocyclic derivatives useful against cardiovascular diseases” (Eli Lilly and Company, priority 2001, dated 2006).

Compound | melting point
CN1CCC(N2CCN(C(=O)[C@@H](Cc3ccccn3)NC(=O)c3cc4ccc(Cl)cc4s3)CC2)CC1.Cl | 219 to 223 °C (dec.)
CN1CCC(C2CCN(C(=O)[C@@H](Cc3cccnc3)NC(=O)c3ccc4cc[nH]c4c3)CC2)CC1.Cl | 177 to 182 °C (dec.)
CN1CCC(N2CCN(C(=O)[C@@H](CCC(=O)O)NC(=O)c3cc4ccc(Cl)cc4s3)CC2)CC1.Cl | 185 to 190 °C (dec.)
CN1CCC(C2CCN(C(=O)[C@@H](CC3CCCCC3)NC(=O)c3ccc4cc[nH]c4c3)CC2)CC1.Cl | 162 to 172 °C (dec.)
CN1CCC(N2CCN(C(=O)[C@@H](CC(N)=O)NC(=O)c3cc4cc(Cl)ccc4[nH]3)CC2)CC1.Cl | 235 to 240 °C (dec.)
CN1CCC(N2CCN(C(=O)[C@@H](CCC(=O)O)NC(=O)c3ccc4cc[nH]c4c3)CC2)CC1.Cl | 215 to 218 °C (dec.)
CN1CCC(N2CCN(C(=O)[C@@H](CC(N)=O)NC(=O)c3cc4ccc(Cl)cc4s3)CC2)CC1.Cl | 219 to 223 °C (dec.)
CN1CCC(N2CCN(C(=O)[C@@H](Cc3ccccn3)NC(=O)c3ccc4cc[nH]c4c3)CC2)CC1.Cl | 232 to 235 °C (dec.)
CN1CCC(N2CCN(C(=O)[C@@H](Cc3ccncc3)NC(=O)c3ccc4cc[nH]c4c3)CC2)CC1.Cl | 228 to 235 °C (dec.)
CN1CCC(C[C@@H](NC(=O)c2cc3cc(Cl)ccc3[nH]2)C(=O)N2CCN(C3CCN(C)CC3)CC2)CC1.Cl | 205 to 210 °C (dec.)
CN1CCC(C[C@@H](NC(=O)c2cc3ccc(Cl)cc3s2)C(=O)N2CCN(C3CCN(C)CC3)CC2)CC1.Cl | 220 to 223 °C (dec.)
CN1CCC(C2CCN(C(=O)[C@@H](Cc3ccncc3)NC(=O)c3ccc4cc[nH]c4c3)CC2)CC1.Cl | 183 to 186 °C (dec.)
CN1CCC(C[C@@H](NC(=O)c2ccc3cc[nH]c3c2)C(=O)N2CCN(C3CCN(C)CC3)CC2)CC1.Cl | 190 to 193 °C (dec.)
CN1CCC(N2CCN(C(=O)[C@@H](Cc3ccncc3)NC(=O)c3cc4cc(Cl)ccc4[nH]3)CC2)CC1.Cl | 238 to 242 °C (dec.)
CN1CCC(C2CCN(C(=O)[C@H](CC3CCOCC3)NC(=O)c3ccc4cc[nH]c4c3)CC2)CC1.Cl | 162 to 178 °C (dec.)
CN1CCC(N2CCN(C(=O)[C@@H](Cc3ccccn3)NC(=O)c3cc4cc(Cl)ccc4[nH]3)CC2)CC1.Cl | 210 to 214 °C (dec.)
CN1CCC(C2CCN(C(=O)[C@@H](Cc3cn(C)cn3)NC(=O)c3ccc4cc[nH]c4c3)CC2)CC1.Cl | 179 to 185 °C (dec.)
CN1CCC(N2CCN(C(=O)[C@@H](CCC(=O)O)NC(=O)c3cc4cc(Cl)ccc4[nH]3)CC2)CC1.Cl | 222 to 225 °C (dec.)
CN1CCC(C2CCN(C(=O)[C@@H](Cc3ccccn3)NC(=O)c3ccc4cc[nH]c4c3)CC2)CC1.Cl | 175 to 179 °C (dec.)
CN1CCC(N2CCN(C(=O)[C@@H](CC(N)=O)NC(=O)c3ccc4cc[nH]c4c3)CC2)CC1.Cl | 215 to 219 °C (dec.)
CN1CCC(N2CCN(C(=O)[C@@H](Cc3ccncc3)NC(=O)c3cc4ccc(Cl)cc4s3)CC2)CC1.Cl | 213 to 217 °C (dec.)
